According to ChEMBL document CHEMBL3885881, “DrugMatrix”:

Species: Rattus norvegicus
Assay: DrugMatrix - Regimen: Daily Repeat
Format: toxicity, organism-based, Sprague-Dawley
Set-up: regimen Daily Repeat, gender Male, age 6-8 weeks
Conditions: in vivo, vehicle 100 % SALINE; for SODIUM / TOTAL BILIRUBIN / TOTAL PROTEIN / URIC ACID / ALANINE AMINOTRANSFERASE / ALBUMIN / ALKALINE PHOSPHATASE / ASPARTATE AMINOTRANSFERASE / BLOOD UREA NITROGEN / CARBON DIOXIDE / CHLORIDE / CHOLESTEROL / CREATINE PHOSPHOKINASE / CREATININE / GLUCOSE / LACTATE DEHYDROGENASE / LIPASE / PHOSPHORUS / POTASSIUM: tissue Plasma; for ABSOLUTE BASOPHIL / ABSOLUTE EOSINOPHIL / ABSOLUTE LYMPHOCYTE / ABSOLUTE MONOCYTE / ABSOLUTE SEGMENTED NEUTROPHIL / BASOPHIL / EOSINOPHIL / ERYTHROCYTE COUNT / HEMATOCRIT / HEMOGLOBIN / LEUKOCYTE COUNT / LYMPHOCYTE / MEAN CORPUSCULAR HEMOGLOBIN / MEAN CORPUSCULAR HEMOGLOBIN CONCENTRATION / MEAN CORPUSCULAR VOLUME / MONOCYTE / NEUTROPHIL / NUCLEATED RED BLOOD CELLS / PLATELET COUNT: tissue Blood
[1] = ip, 40 mg/kg, […], route intraperitoneal, dose level High, time 28 day
[2] = iv, 41 mg/kg, 72 h, dose level High, time 3 day
[3] = iv, 41 mg/kg, 120 h, dose level High, time 5 day
[4] = iv, […], 72 h, dose 4.1 mg/Kg, dose level Low, time 3 day
[5] = iv, […], 120 h, dose 4.1 mg/Kg, dose level Low, time 5 day

Compound: CCN[C@@H]1C[C@H](N)[C@@H](O[C@H]2OC(CN)=CC[C@H]2N)[C@H](O)[C@H]1O[C@H]1OC[C@](C)(O)[C@H](NC)[C@H]1O [NETILMICIN]
- SODIUM [1]: 152.1 MEQ/L
- TOTAL BILIRUBIN [1]: 0.18 mg/dL
- TOTAL PROTEIN [1]: 6.45 G/DL
- URIC ACID [1]: 1.03 mg/dL
- ABSOLUTE BASOPHIL [2]: 0 CELLS/uL
- ABSOLUTE EOSINOPHIL [2]: 0 CELLS/uL
- ABSOLUTE LYMPHOCYTE [2]: 13244.67 CELLS/uL
- ABSOLUTE MONOCYTE [2]: 92.33 CELLS/uL
- ABSOLUTE SEGMENTED NEUTROPHIL [2]: 896.33 CELLS/uL
- BASOPHIL [2]: 0%
- EOSINOPHIL [2]: 0%
- ERYTHROCYTE COUNT [2]: 5.54 x10E6/uL
- HEMATOCRIT [2]: 34.4%
- HEMOGLOBIN [2]: 13.9 G/DL
- LEUKOCYTE COUNT [2]: 14.23 x10E3/uL
- LYMPHOCYTE [2]: 93%
- MEAN CORPUSCULAR HEMOGLOBIN [2]: 25.07 pg
- MEAN CORPUSCULAR HEMOGLOBIN CONCENTRATION [2]: 40.4 G/DL
- MEAN CORPUSCULAR VOLUME [2]: 62.1 fL
- MONOCYTE [2]: 0.67%
- NEUTROPHIL [2]: 6.33%
- NUCLEATED RED BLOOD CELLS [2]: 0 /100WBC
- PLATELET COUNT [2]: 1289.67 x10E3/uL
- ALANINE AMINOTRANSFERASE [2]: 47 u/L
- ALBUMIN [2]: 4.27 G/DL
- ALKALINE PHOSPHATASE [2]: 408.33 u/L
- ASPARTATE AMINOTRANSFERASE [2]: 78.67 u/L
- BLOOD UREA NITROGEN [2]: 16.33 mg/dL
- CARBON DIOXIDE [2]: 32 mmol/L
- CHLORIDE [2]: 102.67 MEQ/L
- CHOLESTEROL [2]: 64.33 mg/dL
- CREATINE PHOSPHOKINASE [2]: 176 u/L
- CREATININE [2]: 0.16 mg/dL
- GLUCOSE [2]: 156.33 mg/dL
- LACTATE DEHYDROGENASE [2]: 111.67 u/L
- LIPASE [2]: 9.33 u/L
- PHOSPHORUS [2]: 12.53 mg/dL
- POTASSIUM [2]: 7.26 MEQ/L
- SODIUM [2]: 144.53 MEQ/L
- TOTAL BILIRUBIN [2]: 0.23 mg/dL
- TOTAL PROTEIN [2]: 5.97 G/DL
- URIC ACID [2]: 1.77 mg/dL
- ABSOLUTE BASOPHIL [3]: 0 CELLS/uL
- ABSOLUTE EOSINOPHIL [3]: 0 CELLS/uL
- ABSOLUTE LYMPHOCYTE [3]: 14425.67 CELLS/uL
- ABSOLUTE MONOCYTE [3]: 210.67 CELLS/uL
- ABSOLUTE SEGMENTED NEUTROPHIL [3]: 463.67 CELLS/uL
- BASOPHIL [3]: 0%
- EOSINOPHIL [3]: 0%
- ERYTHROCYTE COUNT [3]: 5.76 x10E6/uL
- HEMATOCRIT [3]: 36.3%
- HEMOGLOBIN [3]: 14.47 G/DL
- LEUKOCYTE COUNT [3]: 15.1 x10E3/uL
- LYMPHOCYTE [3]: 95.67%
- MEAN CORPUSCULAR HEMOGLOBIN [3]: 25.1 pg
- MEAN CORPUSCULAR HEMOGLOBIN CONCENTRATION [3]: 39.87 G/DL
- MEAN CORPUSCULAR VOLUME [3]: 62.97 fL
- MONOCYTE [3]: 1.33%
- NEUTROPHIL [3]: 3%
- NUCLEATED RED BLOOD CELLS [3]: 0.33 /100WBC
- PLATELET COUNT [3]: 1375.67 x10E3/uL
- ALANINE AMINOTRANSFERASE [3]: 52 u/L
- ALBUMIN [3]: 4.33 G/DL
- ALKALINE PHOSPHATASE [3]: 313.33 u/L
- ASPARTATE AMINOTRANSFERASE [3]: 87.67 u/L
- BLOOD UREA NITROGEN [3]: 18.33 mg/dL
- CARBON DIOXIDE [3]: 35 mmol/L
- CHLORIDE [3]: 100.33 MEQ/L
- CHOLESTEROL [3]: 60.67 mg/dL
- CREATINE PHOSPHOKINASE [3]: 309.33 u/L
- CREATININE [3]: 0.19 mg/dL
- GLUCOSE [3]: 145.33 mg/dL
- LACTATE DEHYDROGENASE [3]: 281 u/L
- LIPASE [3]: 10.33 u/L
- PHOSPHORUS [3]: 11.93 mg/dL
- POTASSIUM [3]: 7.18 MEQ/L
- SODIUM [3]: 145.03 MEQ/L
- TOTAL BILIRUBIN [3]: 0.17 mg/dL
- TOTAL PROTEIN [3]: 6.23 G/DL
- URIC ACID [3]: 1.8 mg/dL
- ABSOLUTE BASOPHIL [4]: 0 CELLS/uL
- ABSOLUTE EOSINOPHIL [4]: 0 CELLS/uL
- ABSOLUTE LYMPHOCYTE [4]: 4768 CELLS/uL
- ABSOLUTE MONOCYTE [4]: 54 CELLS/uL
- ABSOLUTE SEGMENTED NEUTROPHIL [4]: 578 CELLS/uL
- BASOPHIL [4]: 0%
- EOSINOPHIL [4]: 0%
- ERYTHROCYTE COUNT [4]: 5.02 x10E6/uL
- HEMATOCRIT [4]: 31.53%
- HEMOGLOBIN [4]: 12.37 G/DL
- LEUKOCYTE COUNT [4]: 5.4 x10E3/uL
- LYMPHOCYTE [4]: 88.33%
- MEAN CORPUSCULAR HEMOGLOBIN [4]: 24.67 pg
- MEAN CORPUSCULAR HEMOGLOBIN CONCENTRATION [4]: 39.23 G/DL
- MEAN CORPUSCULAR VOLUME [4]: 62.83 fL
- MONOCYTE [4]: 1%
- NEUTROPHIL [4]: 10.67%
- NUCLEATED RED BLOOD CELLS [4]: 0.33 /100WBC
- PLATELET COUNT [4]: 1171 x10E3/uL
- ALANINE AMINOTRANSFERASE [4]: 52.33 u/L
- ALBUMIN [4]: 4.23 G/DL
- ALKALINE PHOSPHATASE [4]: 370.33 u/L
- ASPARTATE AMINOTRANSFERASE [4]: 91.67 u/L
- BLOOD UREA NITROGEN [4]: 16 mg/dL
- CARBON DIOXIDE [4]: 33.67 mmol/L
- CHLORIDE [4]: 99.33 MEQ/L
- CHOLESTEROL [4]: 62 mg/dL
- CREATINE PHOSPHOKINASE [4]: 447.67 u/L
- CREATININE [4]: 0.17 mg/dL
- GLUCOSE [4]: 154 mg/dL
- LACTATE DEHYDROGENASE [4]: 115.33 u/L
- LIPASE [4]: 9.33 u/L
- PHOSPHORUS [4]: 10.83 mg/dL
- POTASSIUM [4]: 6.02 MEQ/L
- SODIUM [4]: 143.23 MEQ/L
- TOTAL BILIRUBIN [4]: 0.23 mg/dL
- TOTAL PROTEIN [4]: 6.03 G/DL
- URIC ACID [4]: 0.8 mg/dL
- ABSOLUTE BASOPHIL [5]: 0 CELLS/uL
- ABSOLUTE EOSINOPHIL [5]: 0 CELLS/uL
- ABSOLUTE LYMPHOCYTE [5]: 13577.67 CELLS/uL
- ABSOLUTE MONOCYTE [5]: 137 CELLS/uL
- ABSOLUTE SEGMENTED NEUTROPHIL [5]: 1018.67 CELLS/uL
- BASOPHIL [5]: 0%
- EOSINOPHIL [5]: 0%
- ERYTHROCYTE COUNT [5]: 5.81 x10E6/uL
- HEMATOCRIT [5]: 36.13%
- HEMOGLOBIN [5]: 14.33 G/DL
- LEUKOCYTE COUNT [5]: 14.73 x10E3/uL
- LYMPHOCYTE [5]: 92%
- MEAN CORPUSCULAR HEMOGLOBIN [5]: 24.7 pg
- MEAN CORPUSCULAR HEMOGLOBIN CONCENTRATION [5]: 39.7 G/DL
- MEAN CORPUSCULAR VOLUME [5]: 62.17 fL
- MONOCYTE [5]: 1%
- NEUTROPHIL [5]: 7%
- NUCLEATED RED BLOOD CELLS [5]: 0 /100WBC
- PLATELET COUNT [5]: 1276.33 x10E3/uL
- ALANINE AMINOTRANSFERASE [5]: 46.33 u/L
- ALBUMIN [5]: 4.3 G/DL
- ALKALINE PHOSPHATASE [5]: 383.33 u/L
- ASPARTATE AMINOTRANSFERASE [5]: 80.67 u/L
- BLOOD UREA NITROGEN [5]: 16 mg/dL
- CARBON DIOXIDE [5]: 31.67 mmol/L
- CHLORIDE [5]: 101.33 MEQ/L
- CHOLESTEROL [5]: 83.33 mg/dL
- CREATINE PHOSPHOKINASE [5]: 216.67 u/L
- CREATININE [5]: 0.17 mg/dL
- GLUCOSE [5]: 166.33 mg/dL
- LACTATE DEHYDROGENASE [5]: 180 u/L
- LIPASE [5]: 9.33 u/L
- PHOSPHORUS [5]: 13.33 mg/dL
- POTASSIUM [5]: 7.09 MEQ/L
- SODIUM [5]: 145.07 MEQ/L
- TOTAL BILIRUBIN [5]: 0.13 mg/dL
- TOTAL PROTEIN [5]: 6.3 G/DL
- URIC ACID [5]: 1.93 mg/dL
